Test results: patent publication US6596271B2, “Insect control method with genetically engineered biopesticides” (priority 1996, dated 2003)
Marks after values point to notes of the source that are not given here.

What was measured:
[1] = system: neonate larvae of H. virescens; test: Time-response of neonate larvae to NPVs with low concentrations of classical insecticides (droplet feeding, treated vials); format: in vivo, Heliothis virescens; settings: 2000 PIBs and/or LC10-LC20 (24 h) insecticide
From the text: For example, two of the compounds studied were pyrethroids, […]. In our study we found a subadditive response when low rates of allethrin or cypermethrin were combined with wild-type AcNPV.

[2] = system: neonate larvae of H. virescens; format: in vivo, Heliothis virescens; settings: at the μg insecticide/vial of Table 4
From the text: As indicated previously, these studies have emphasized the effects of combinations of viral and chemical insecticides on LT50, but the same approaches could be applied to dose as well as time. […] In practice a variety of factors would influence the rates used, including the cost and availability of the biological and chemical pesticide, environmental concerns, level of resistant populations in the field, and other pest management considerations.
Two of the compounds studied were pyrethroids, allethrin (Type I pyrethroid) or cypermethrin (Type II pyrethroid). In our study we found a subadditive response when low rates of allethrin or cypermethrin were combined with wild-type AcNPV.

Row | Structure (SMILES) | Actual Kill Time (LT50, h) [1] | LT10 (h; 95% CL) [1] | LT50 (h; 95% CL) [1] | LT90 (h; 95% CL) [1] | % Mortality at 24 hours [2]
1 | O=S1OCC2C(CO1)C1(Cl)C(Cl)=C(Cl)C2(Cl)C1(Cl)Cl (centres unmarked) [Endosulfan] | 73.3 h | 10.4 (3.75-17.3) h | 73.3 (61.0-90.3) h | 514 (296-1580) h | 17.5%
2 | C=CCC1=C(C)C(OC(=O)C2C(C=C(C)C)C2(C)C)CC1=O (centres unmarked) [Allethrin] | 132 h | 17.3 (11.5-22.5) h | 132 (106-185) h | 1000 (552-2680) h | 14.0%
3 | CC1(C)C(C=C(Cl)Cl)C1C(=O)OC(C#N)c1cccc(Oc2ccccc2)c1 (centres unmarked) [Cypermethrin] | 124 h | 17.1 (7.99-24.8) h | 124 (97.5-195) h | 902 (436-4190) h | 11.8%
4 | CCCSP(=O)(OCC)Oc1ccc(Br)cc1Cl (centres unmarked) [Profenofos] | 401 h | 8.10 (2.61-17.5) h | 401 (260-676) h |  | 16.3%
5 | Clc1ccc(C(c2ccc(Cl)cc2)C(Cl)(Cl)Cl)cc1 [DDT] | 96.7 h | 12.6 (3.90-23.8) h | 96.7 (73.5-165) h | 740 (318-10320) h | 18.8%
6 | CNC(=O)ON=C(C)SC [Methomyl] | 358 h | 4.84 (0.12-13.1) h | 358 (182-4070) h | 26563 (2870-1.25 × 10^8) h | 20.8%
